{"source": "patent US9028856B2", "about": "“Synergistic pesticide compositions” (priority 2008, dated 2015)", "key": {"[1]": {"system": "malaria mosquito (Anopheles gambiae)", "assay": "Five-minute exposure bioassay, WHO Adult Mosquito Susceptibility Test Kit, treated filter paper", "format": "in vivo", "conditions": "for KT 50 / KT 95 / % knock down after 10′ / % knock down after 15′ / % knock down after 20′ / % knock down after 25′ / % knock down after 30′ / % knock down after 45′ / % knock down after 60′ / % mortality 1 d: Table 80, filter paper (mg/m^2); for % mortality 1 d: mortality 24 hours post exposure; for % knock down after 5′: Table 80, technical sample on filter paper (mg/m^2)", "procedure": "The bioassays were carried out using the WHO Adult Mosquito Susceptibility Test Kit, (WHO/VBC 81.805, 1981) with plastic cylinders (4.5 cm diameter, 12 cm height). All bioassays were done using preferably female sugar fed Anopheles gambiae mosquitoes. Knock down was recorded after at 5, 10, 15, 20, 25, 30, 45 and 60 minutes, when the mosquitoes were supplied with a 5% sugar water source for 24 hours. Mortality was recorded 24 hours post exposure. Each test consisted of three replicates from which the mean values were calculated. The insecticides (all technical grades) were applied as 2 ml acetone solutions onto filter papers (12 cm×15 cm)."}, "Aedes aegypti mosquito": {"system": "Aedes aegypti mosquito", "assay": "USDA Petri Dish Method, 3 min exposure to dipped fiberglass window screen", "format": "in vivo", "conditions": "dipped screen, 3 min exposure", "procedure": "MATERIALS AND METHODS: Aqueous solutions of 1% deltamethrin with and without an adjuvant composition, which is sold under the tradename Suspend® SC. […] Pre-cut fiberglass screen (5″×5″, or 161.3 cm^2) were dipped in each treatment solution and excessive solution was allowed to drain completely (see FIG. 23 a). Weight of the solution coated on the screen was then determined. The treated screen was then allowed to air-dry overnight. USDA Petri Dish Method was used as initial screening protocol (see FIG. 23 b). Twenty, 4-6 day old female Aedes aegypti were exposed to treated window screen for 3 minutes and then moved onto a clean untreated white paper index card. Treatments were replicated a minimum of three times. Mosquito knockdown was evaluated at 3 minute intervals for the first 15 minutes and then at 5 minute intervals for the remainder of an hour. A small cotton ball with sucrose solution was added on the screen top of the Petri dish as a drinking source. Mortality was evaluated at 24 hours after exposure.\nMATERIALS AND METHODS: Several rates of permethrin without adjuvant were prepared using product sold under the tradename Permanone® 40 to determine an effective rate against Aedes aegypti mosquitoes. After determining an effective rate range, aqueous solutions of permethrin at 1.25, 1.0 and 0.05% AI were prepared with and without adjuvant. […] Pre-cut fiberglass screens (5″×5″ or 161.3 cm^2) were dipped in each treatment solution allowing excessive solution to drain completely. Weight of the solution coated on the screen was then determined. The treated screen was then allowed to air-dry overnight. USDA Petri Dish Method was used as initial screening protocol (see photo, right). Twenty, 4-6 day old female Aedes aegypti were exposed to treated window screen for 3 minutes and then moved to a clean untreated white paper index card. Treatments were replicated a minimum of three times. Mosquito knockdown was evaluated at 3 minute intervals for the first 15 minutes and then at 5 minute intervals for the remainder of an hour. A small cotton ball with sucrose solution was added on the screen top of the petri-dish as a drinking source. Mortality was evaluated at 24 hours after exposure."}, "[2]": {"conditions": "Table 39, permethrin without adjuvant (Permanone 40)"}, "[3]": {"conditions": "Table 40, aqueous permethrin/adjuvant"}}}
{"smiles": "CC1(C)[C@H](C(=O)O[C@H](C#N)c2cccc(Oc3ccccc3)c2)[C@@H]1C=C(Br)Br", "note": "[40 mg DTM]", "values": [{"measurement": "KT 50", "setting": "[1]", "value": 10, "unit": "min"}, {"measurement": "KT 95", "setting": "[1]", "value": 40, "unit": "min"}, {"measurement": "% knock down after 10′", "setting": "[1]", "value": 53, "unit": "%"}, {"measurement": "% knock down after 15′", "setting": "[1]", "value": 66, "unit": "%"}, {"measurement": "% knock down after 20′", "setting": "[1]", "value": 76, "unit": "%"}, {"measurement": "% knock down after 25′", "setting": "[1]", "value": 92, "unit": "%"}, {"measurement": "% knock down after 30′", "setting": "[1]", "value": 97, "unit": "%"}, {"measurement": "% knock down after 45′", "setting": "[1]", "value": 100, "unit": "%"}, {"measurement": "% knock down after 60′", "setting": "[1]", "value": 100, "unit": "%"}, {"measurement": "% mortality 1 d", "setting": "[1]", "value": 83, "unit": "%"}, {"measurement": "% knock down after 5′", "setting": "[1]", "value": 22, "unit": "%"}]}
{"smiles": "CNC(=O)Oc1cccc2c1OC(C)(C)O2", "note": "[40 mg bendiocarb]", "values": [{"measurement": "KT 50", "setting": "[1]", "value": 12, "unit": "min"}, {"measurement": "KT 95", "setting": "[1]", "value": ">60", "unit": "min"}, {"measurement": "% knock down after 10′", "setting": "[1]", "value": 50, "unit": "%"}, {"measurement": "% knock down after 15′", "setting": "[1]", "value": 56, "unit": "%"}, {"measurement": "% knock down after 20′", "setting": "[1]", "value": 68, "unit": "%"}, {"measurement": "% knock down after 25′", "setting": "[1]", "value": 74, "unit": "%"}, {"measurement": "% knock down after 30′", "setting": "[1]", "value": 76, "unit": "%"}, {"measurement": "% knock down after 45′", "setting": "[1]", "value": 81, "unit": "%"}, {"measurement": "% knock down after 60′", "setting": "[1]", "value": 85, "unit": "%"}, {"measurement": "% mortality 1 d", "setting": "[1]", "value": 94, "unit": "%"}, {"measurement": "% knock down after 5′", "setting": "[1]", "value": 16, "unit": "%"}]}
{"smiles": "CC1(C)C(C=C(Cl)Cl)C1C(=O)OCc1cccc(Oc2ccccc2)c1", "note": "(stereo not shown) [Permethrin (0.1%)]", "values": [{"measurement": "Average % Knockdown & Mortality after 3 min", "setting": "Aedes aegypti mosquito; [2]", "value": 0, "unit": "%"}, {"measurement": "Average % Knockdown & Mortality after 9 min", "setting": "Aedes aegypti mosquito; [2]", "value": 0, "unit": "%"}, {"measurement": "Average % Knockdown & Mortality after 15 min", "setting": "Aedes aegypti mosquito; [2]", "value": 0, "unit": "%"}, {"measurement": "Average % Knockdown & Mortality after 30 min", "setting": "Aedes aegypti mosquito; [2]", "value": 0, "unit": "%"}, {"measurement": "Average % Knockdown & Mortality after 60 min", "setting": "Aedes aegypti mosquito; [2]", "value": 0, "unit": "%"}, {"measurement": "Average % Knockdown & Mortality after 24 hr", "setting": "Aedes aegypti mosquito; [2]", "value": 5, "unit": "%"}]}
{"smiles": "CC1(C)C(C=C(Cl)Cl)C1C(=O)OCc1cccc(Oc2ccccc2)c1", "note": "(stereo not shown) [Permethrin (1.0%)]", "values": [{"measurement": "Average % Knockdown & Mortality after 3 min", "setting": "Aedes aegypti mosquito; [2]", "value": 0, "unit": "%"}, {"measurement": "Average % Knockdown & Mortality after 3 min", "setting": "Aedes aegypti mosquito; [3]", "value": 2, "unit": "%"}, {"measurement": "Average % Knockdown & Mortality after 9 min", "setting": "Aedes aegypti mosquito; [2]", "value": 2, "unit": "%"}, {"measurement": "Average % Knockdown & Mortality after 9 min", "setting": "Aedes aegypti mosquito; [3]", "value": 2, "unit": "%"}, {"measurement": "Average % Knockdown & Mortality after 15 min", "setting": "Aedes aegypti mosquito; [2]", "value": 2, "unit": "%"}, {"measurement": "Average % Knockdown & Mortality after 15 min", "setting": "Aedes aegypti mosquito; [3]", "value": 2, "unit": "%"}, {"measurement": "Average % Knockdown & Mortality after 30 min", "setting": "Aedes aegypti mosquito; [2]", "value": 5, "unit": "%"}, {"measurement": "Average % Knockdown & Mortality after 30 min", "setting": "Aedes aegypti mosquito; [3]", "value": 4, "unit": "%"}, {"measurement": "Average % Knockdown & Mortality after 60 min", "setting": "Aedes aegypti mosquito; [2]", "value": 18, "unit": "%"}, {"measurement": "Average % Knockdown & Mortality after 60 min", "setting": "Aedes aegypti mosquito; [3]", "value": 13, "unit": "%"}, {"measurement": "Average % Knockdown & Mortality after 24 hr", "setting": "Aedes aegypti mosquito; [2]", "value": 34, "unit": "%"}, {"measurement": "Average % Knockdown & Mortality after 24 hr", "setting": "Aedes aegypti mosquito; [3]", "value": 28, "unit": "%"}]}
{"smiles": "CC1(C)C(C=C(Cl)Cl)C1C(=O)OCc1cccc(Oc2ccccc2)c1", "note": "(stereo not shown) [Permethrin (1.5%)]", "values": [{"measurement": "Average % Knockdown & Mortality after 3 min", "setting": "Aedes aegypti mosquito; [2]", "value": 0, "unit": "%"}, {"measurement": "Average % Knockdown & Mortality after 9 min", "setting": "Aedes aegypti mosquito; [2]", "value": 0, "unit": "%"}, {"measurement": "Average % Knockdown & Mortality after 15 min", "setting": "Aedes aegypti mosquito; [2]", "value": 2, "unit": "%"}, {"measurement": "Average % Knockdown & Mortality after 30 min", "setting": "Aedes aegypti mosquito; [2]", "value": 2, "unit": "%"}, {"measurement": "Average % Knockdown & Mortality after 60 min", "setting": "Aedes aegypti mosquito; [2]", "value": 3, "unit": "%"}, {"measurement": "Average % Knockdown & Mortality after 24 hr", "setting": "Aedes aegypti mosquito; [2]", "value": 16, "unit": "%"}]}
{"smiles": "CC1(C)C(C=C(Cl)Cl)C1C(=O)OCc1cccc(Oc2ccccc2)c1", "note": "(stereo not shown) [Permethrin (1.25%)]", "values": [{"measurement": "Average % Knockdown & Mortality after 3 min", "setting": "Aedes aegypti mosquito; [2]", "value": 46, "unit": "%"}, {"measurement": "Average % Knockdown & Mortality after 3 min", "setting": "Aedes aegypti mosquito; [3]", "value": 0, "unit": "%"}, {"measurement": "Average % Knockdown & Mortality after 9 min", "setting": "Aedes aegypti mosquito; [2]", "value": 71, "unit": "%"}, {"measurement": "Average % Knockdown & Mortality after 9 min", "setting": "Aedes aegypti mosquito; [3]", "value": 0, "unit": "%"}, {"measurement": "Average % Knockdown & Mortality after 15 min", "setting": "Aedes aegypti mosquito; [2]", "value": 71, "unit": "%"}, {"measurement": "Average % Knockdown & Mortality after 15 min", "setting": "Aedes aegypti mosquito; [3]", "value": 2, "unit": "%"}, {"measurement": "Average % Knockdown & Mortality after 30 min", "setting": "Aedes aegypti mosquito; [2]", "value": 72, "unit": "%"}, {"measurement": "Average % Knockdown & Mortality after 30 min", "setting": "Aedes aegypti mosquito; [3]", "value": 2, "unit": "%"}, {"measurement": "Average % Knockdown & Mortality after 60 min", "setting": "Aedes aegypti mosquito; [2]", "value": 79, "unit": "%"}, {"measurement": "Average % Knockdown & Mortality after 60 min", "setting": "Aedes aegypti mosquito; [3]", "value": 3, "unit": "%"}, {"measurement": "Average % Knockdown & Mortality after 24 hr", "setting": "Aedes aegypti mosquito; [2]", "value": 82, "unit": "%"}, {"measurement": "Average % Knockdown & Mortality after 24 hr", "setting": "Aedes aegypti mosquito; [3]", "value": 7, "unit": "%"}]}
{"smiles": "CC1(C)C(C=C(Cl)Cl)C1C(=O)OCc1cccc(Oc2ccccc2)c1", "note": "(stereo not shown) [Permethrin (1.75%)]", "values": [{"measurement": "Average % Knockdown & Mortality after 3 min", "setting": "Aedes aegypti mosquito; [2]", "value": 40, "unit": "%"}, {"measurement": "Average % Knockdown & Mortality after 9 min", "setting": "Aedes aegypti mosquito; [2]", "value": 95, "unit": "%"}, {"measurement": "Average % Knockdown & Mortality after 15 min", "setting": "Aedes aegypti mosquito; [2]", "value": 100, "unit": "%"}, {"measurement": "Average % Knockdown & Mortality after 30 min", "setting": "Aedes aegypti mosquito; [2]", "value": 100, "unit": "%"}, {"measurement": "Average % Knockdown & Mortality after 60 min", "setting": "Aedes aegypti mosquito; [2]", "value": 100, "unit": "%"}, {"measurement": "Average % Knockdown & Mortality after 24 hr", "setting": "Aedes aegypti mosquito; [2]", "value": 100, "unit": "%"}]}
{"smiles": "CC1(C)C(C=C(Cl)Cl)C1C(=O)OCc1cccc(Oc2ccccc2)c1", "note": "(stereo not shown) [Permethrin (2.5%)]", "values": [{"measurement": "Average % Knockdown & Mortality after 3 min", "setting": "Aedes aegypti mosquito; [2]", "value": 56, "unit": "%"}, {"measurement": "Average % Knockdown & Mortality after 9 min", "setting": "Aedes aegypti mosquito; [2]", "value": 100, "unit": "%"}, {"measurement": "Average % Knockdown & Mortality after 15 min", "setting": "Aedes aegypti mosquito; [2]", "value": 100, "unit": "%"}, {"measurement": "Average % Knockdown & Mortality after 30 min", "setting": "Aedes aegypti mosquito; [2]", "value": 100, "unit": "%"}, {"measurement": "Average % Knockdown & Mortality after 60 min", "setting": "Aedes aegypti mosquito; [2]", "value": 100, "unit": "%"}, {"measurement": "Average % Knockdown & Mortality after 24 hr", "setting": "Aedes aegypti mosquito; [2]", "value": 100, "unit": "%"}]}
{"smiles": "CC1(C)C(C=C(Cl)Cl)C1C(=O)OCc1cccc(Oc2ccccc2)c1", "note": "(stereo not shown) [Permethrin (5%)]", "values": [{"measurement": "Average % Knockdown & Mortality after 3 min", "setting": "Aedes aegypti mosquito; [2]", "value": 75, "unit": "%"}, {"measurement": "Average % Knockdown & Mortality after 9 min", "setting": "Aedes aegypti mosquito; [2]", "value": 100, "unit": "%"}, {"measurement": "Average % Knockdown & Mortality after 15 min", "setting": "Aedes aegypti mosquito; [2]", "value": 100, "unit": "%"}, {"measurement": "Average % Knockdown & Mortality after 30 min", "setting": "Aedes aegypti mosquito; [2]", "value": 100, "unit": "%"}, {"measurement": "Average % Knockdown & Mortality after 60 min", "setting": "Aedes aegypti mosquito; [2]", "value": 100, "unit": "%"}, {"measurement": "Average % Knockdown & Mortality after 24 hr", "setting": "Aedes aegypti mosquito; [2]", "value": 100, "unit": "%"}]}
